The values that follow come from ChEMBL document CHEMBL2434852, “Synthesis, cytotoxicity and DNA binding of oxoazabenzo[de]anthracenes derivatives in colon cancer Caco-2 cells” (Eur J Med Chem, 2013).

One may read the IC50 as the concentration that gives 50% inhibition. Higher therefore signals weaker potency in that assay.

The test system of experiment [1] is DNA. Kind of experiment: Displacement of ethidium bromide from calf thymus DNA assessed as fluorescence quenching by fluorometric assay. Type of experiment: nucleic-acid assay. As to conditions: Bos taurus.
In experiment [2] the test system is Caco-2. Kind of experiment: Cytotoxicity against human Caco2 cells up to 40 uM after 24 hrs by MTT assay. Format: functional, cell-based. Background: Formazan colour is commonly taken as a measure of viable cells.
In experiment [3] the test system is DNA. In words: Binding affinity to calf thymus DNA assessed as melting temperature at 10 uM by UV-Vis spectrophotometer analysis. Type of experiment: nucleic-acid assay. As to conditions: Bos taurus.
Experiment [4] has as its system Caco-2. Kind of experiment: Cytotoxicity against human Caco2 cells after 72 hrs by MTT assay. Format: functional, cell-based. As to conditions: for IC50: Caco-2, 72 h.
The target of experiment [5] is T1, DNA topoisomerase 1 (Homo sapiens) (UniProt P11387).
T1 sequence (whole entry): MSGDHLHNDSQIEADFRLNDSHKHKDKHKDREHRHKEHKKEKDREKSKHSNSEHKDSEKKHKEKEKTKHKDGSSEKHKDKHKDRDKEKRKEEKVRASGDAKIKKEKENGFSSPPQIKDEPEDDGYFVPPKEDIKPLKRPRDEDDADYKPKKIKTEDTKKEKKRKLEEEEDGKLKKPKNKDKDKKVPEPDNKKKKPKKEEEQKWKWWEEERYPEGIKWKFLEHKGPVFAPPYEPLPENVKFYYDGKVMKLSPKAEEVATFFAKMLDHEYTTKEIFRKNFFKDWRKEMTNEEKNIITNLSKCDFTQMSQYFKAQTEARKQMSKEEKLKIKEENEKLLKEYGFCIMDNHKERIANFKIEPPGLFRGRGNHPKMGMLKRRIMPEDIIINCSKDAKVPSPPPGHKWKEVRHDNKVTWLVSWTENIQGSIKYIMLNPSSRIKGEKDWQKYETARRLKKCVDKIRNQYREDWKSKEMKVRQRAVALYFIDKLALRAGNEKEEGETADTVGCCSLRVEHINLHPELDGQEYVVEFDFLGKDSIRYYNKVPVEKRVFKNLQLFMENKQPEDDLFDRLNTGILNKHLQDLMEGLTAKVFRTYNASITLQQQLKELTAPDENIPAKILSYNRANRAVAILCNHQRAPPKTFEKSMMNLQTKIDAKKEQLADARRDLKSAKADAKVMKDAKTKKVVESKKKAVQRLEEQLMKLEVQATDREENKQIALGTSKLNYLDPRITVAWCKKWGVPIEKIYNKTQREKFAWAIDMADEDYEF
In words: Inhibition of topoisomerase 1 (unknown origin) relaxation of supercoiled pBR322 at 50 to 100 uM by agarose gel electrophoresis.

Experiment [6] addresses DNA topoisomerase 2-alpha (Homo sapiens) (UniProt P11388). In words: Inhibition of topoisomerase 2 (unknown origin) relaxation of supercoiled pBR322 at 50 to 100 uM by agarose gel electrophoresis.
For experiment [7], the system named is Escherichia coli. In words: Binding affinity to Escherichia coli supercoiled pBR322 assessed as change in morphology of plasmid to more relaxed conformation at 50 to 100 uM by agarose gel electrophoresis.

Calls of active or inactive are those of the source. The rule behind the calls is not given here.

Sequence of DNA topoisomerase 2-alpha (Homo sapiens) (P11388 whole entry): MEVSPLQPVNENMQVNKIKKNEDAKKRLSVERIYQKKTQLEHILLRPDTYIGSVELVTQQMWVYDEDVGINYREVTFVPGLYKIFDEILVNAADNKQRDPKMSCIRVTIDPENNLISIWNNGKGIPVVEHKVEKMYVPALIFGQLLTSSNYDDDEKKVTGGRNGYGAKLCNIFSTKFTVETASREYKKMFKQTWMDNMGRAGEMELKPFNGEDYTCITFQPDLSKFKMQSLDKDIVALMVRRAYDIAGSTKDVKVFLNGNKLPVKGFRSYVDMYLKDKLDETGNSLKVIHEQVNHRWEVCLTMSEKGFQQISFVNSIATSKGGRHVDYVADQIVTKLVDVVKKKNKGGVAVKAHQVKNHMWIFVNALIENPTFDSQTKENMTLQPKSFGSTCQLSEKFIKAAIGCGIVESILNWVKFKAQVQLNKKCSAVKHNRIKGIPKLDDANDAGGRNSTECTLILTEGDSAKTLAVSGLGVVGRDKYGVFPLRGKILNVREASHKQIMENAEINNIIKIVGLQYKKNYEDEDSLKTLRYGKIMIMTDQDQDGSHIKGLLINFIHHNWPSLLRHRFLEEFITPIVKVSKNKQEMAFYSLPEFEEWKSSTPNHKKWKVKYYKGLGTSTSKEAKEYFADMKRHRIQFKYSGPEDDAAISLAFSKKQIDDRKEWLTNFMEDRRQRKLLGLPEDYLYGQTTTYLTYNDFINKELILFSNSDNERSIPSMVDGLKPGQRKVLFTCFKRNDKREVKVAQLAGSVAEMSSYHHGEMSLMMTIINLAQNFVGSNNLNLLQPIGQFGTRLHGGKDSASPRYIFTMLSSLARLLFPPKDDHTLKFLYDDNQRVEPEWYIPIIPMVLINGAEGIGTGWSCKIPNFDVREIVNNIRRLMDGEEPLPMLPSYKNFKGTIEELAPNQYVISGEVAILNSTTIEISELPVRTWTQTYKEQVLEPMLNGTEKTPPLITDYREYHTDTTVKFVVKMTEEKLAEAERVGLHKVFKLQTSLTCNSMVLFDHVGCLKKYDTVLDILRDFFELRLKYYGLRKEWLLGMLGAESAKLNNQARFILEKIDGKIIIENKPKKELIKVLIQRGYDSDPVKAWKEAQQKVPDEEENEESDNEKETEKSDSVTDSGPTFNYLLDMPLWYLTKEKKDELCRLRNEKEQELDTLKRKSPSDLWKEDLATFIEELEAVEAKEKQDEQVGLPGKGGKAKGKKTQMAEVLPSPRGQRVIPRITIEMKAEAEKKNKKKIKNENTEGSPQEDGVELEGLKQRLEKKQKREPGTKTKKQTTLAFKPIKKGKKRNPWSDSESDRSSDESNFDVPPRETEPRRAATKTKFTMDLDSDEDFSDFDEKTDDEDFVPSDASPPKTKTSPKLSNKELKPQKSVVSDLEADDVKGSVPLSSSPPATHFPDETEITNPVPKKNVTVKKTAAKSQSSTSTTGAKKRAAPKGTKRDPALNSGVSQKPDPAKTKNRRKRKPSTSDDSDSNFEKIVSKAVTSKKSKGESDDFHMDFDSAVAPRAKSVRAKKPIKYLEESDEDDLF

Take `O=C1c2cccc(O)c2C2=NC(CCCCO)Oc3cccc1c32` (centres undefined): in experiment [1], the C50 entry is “inactive”. Further, in experiment [2], the result was inactive. Moreover, the Tm in experiment [3] was found to be 62.2 °C.
In the case of `O=C1c2cccc(O)c2C2=NC(CCCO)Oc3cccc1c32` (centres undefined), in experiment [1], the C50 result was “inactive”. The outcome in experiment [2] was inactive. In addition, the Tm in experiment [3] came to 58.4 °C.
For `O=C1c2cccc(O)c2C2=NC(CCO)Oc3cccc1c32` (centres undefined), the C50 entry in experiment [1] is “inactive”. In experiment [2], the outcome was inactive. In addition, the Tm in experiment [3] stood at 57.2 °C.
Take `O=C1c2cccc(O)c2C2=NC(CO)Oc3cccc1c32` (centres undefined): in experiment [1], the C50 entry was “inactive”. Also, the result in experiment [2] was inactive. Also, in experiment [3], the Tm was 64.3 °C.
As to `O=C1c2cccc(O)c2C2=NC(CCCCCO)Oc3cccc1c32` (centres undefined), the C50 entry in experiment [1] was “inactive”. Moreover, the outcome in experiment [2] was inactive. Besides, the Tm in experiment [3] was found to be 59.2 °C.
For `NCCC1CN(C2N=C3c4c(O)cccc4C(=O)c4cccc(c43)O2)CCO1` (centres undefined), the C50 entry in experiment [1] was “inactive”. The outcome in experiment [4] and in experiment [2] was inactive. The Tm in experiment [3] is 66.2 °C.
For the molecule `NCCC1CCCCN1C1N=C2c3c(O)cccc3C(=O)c3cccc(c32)O1` (centres undefined), the inhibition result in experiment [5] and in experiment [6] was “inactive” throughout. Moreover, the C50 in experiment [1] was 6 µM. Also, the IC50 in experiment [4] turned out to be 16 µM. Moreover, the outcome in experiment [2] was inactive. Moreover, in experiment [7], the result was Active. Also, the Tm in experiment [3] is 79.9 °C.
Consider `COc1cccc2c1C(=O)c1c(O)c3c(c(O)c1C2=O)C[C@@](O)(C(=O)CO)C[C@@H]3O[C@H]1C[C@H](N)[C@H](O)[C@H](C)O1` [DOXORUBICIN], for which it took 5 µM to reach half-maximal inhibition in experiment [4] (IC50). In experiment [2], the result was inactive. Further, the Tm in experiment [3] came to 92 °C.
